Consider 68 sequences from the supplement of paper PMC11208160.

This series in a line: recombinant UMI read abundance after kanamycin selection (control-corrected) (log10(CPM+1)); higher = more efficient recombination; extreme values may be limits of the assay; sequences stand for … in AGTGCAGAGAAAATCGGCCAGTTTTCTCTGCCTGCAGTCCGCATGCCGTGGGACCCCTTGGGTTCTAACCTGTTGCCTAGATTTATGCAGCGGACTGCCTTTCTCCCAAAGTGATAAACCGG…AGGTTGGTTTCACT; site = the 11-nt donor. In a few lines:
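For the IS621 bridge recombinase, a pooled Escherichia coli screen tested donor and donor-binding-loop pairs. Cells received the pair library together with a target plasmid encoding a fixed target and T7-inducible recombinase, then went onto IPTG (0.07 mM) plus kanamycin or unselected plates in duplicate. After PCR across the donor–target junction and sequencing, recombinant UMI counts were normalized to CPM, averaged, and scaled by control-derived factors. Each value is given as log10(CPM+1).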
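Note: IS621 bridge recombinase in Escherichia coli cells against a fixed T5 target plasmid.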

As for “AGGGACACATGGACCGGTTTTCCCGGTAATCCGTATTTGGC (site AGGGACACTGC)”, the “recombinant UMI read abundance (log10)” value came to 2.93.

With “AGGGAGTCATGGACCGGTTTTCCCGGTAATCCGTATTTGCA (site AGGAAGACTTG)”, the “recombinant UMI read abundance (log10)” value stood at 0.426. The result for “AGGGAGTCATGGACCGGTTTTCCCGGTAATCCGTATTTGCA (site AGGGAGTCTTG)” reads 2.79.

In the case of “AGGGAGTCATGGACCGGTTTTCCCGGTAATCCGTATTTGCC (site AGGGAGTCTGG)”, the “recombinant UMI read abundance (log10)” value worked out at 2.15. Next, “AGGGAGTCATGGACCGGTTTTCCCGGTAATCCGTATTTGCC (site CGGGAGTCTGG)”: 0.995. The result for “AGGGAGTCATGGACCGGTTTTCCCGGTAATCCGTATTTGCC (site GGGGAGTCTGG)” reads 0.

On to “AGGGAGTCATGGACCGGTTTTCCCGGTAATCCGTATTTGCC (site TGGGAGTCTGG)”, for which the “recombinant UMI read abundance (log10)” value was 0.994. The result for “AGGGCACCATGGACCGGTTTTCCCGGTAATCCGTATTTGCA (site AGGGCACCTTG)” reads 0.655. Regarding “AGGGCACCATGGACCGGTTTTCCCGGTAATCCGTATTTGCA (site CGGGCACCTTG)”, the “recombinant UMI read abundance (log10)” value amounted to 0.

Regarding “AGGGCACCATGGACCGGTTTTCCCGGTAATCCGTATTTGCA (site GGGGCACCTTG)”, the “recombinant UMI read abundance (log10)” value is 0. The result for “AGGGCACCATGGACCGGTTTTCCCGGTAATCCGTATTTGCA (site TGGGCACCTTG)” reads 0; that for “AGGGCCTCATGGACCGGTTTTCCCGGTAATCCGTATTTGCT (site AGGGCCTCTAG)”, 2.95; that for “AGGGGCGCATGGACCGGTTTTCCCGGTAATCCGTATTTGCC (site AGGGGCGCTGG)”, 3.25. The result for “AGGGGTCCATGGACCGGTTTTCCCGGTAATCCGTATTTGCT (site AGGGGTCCTAG)” reads 0.704; that for “AGGGTCACATGGACCGGTTTTCCCGGTAATCCGTATTTGAG (site AGGGTCACTCT)”, 1.39. The result for “AGGGTCCCATGGACCGGTTTTCCCGGTAATCCGTATTTGTG (site AGGATCCCTCA)” reads 0.239; that for “AGGGTCCCATGGACCGGTTTTCCCGGTAATCCGTATTTGTG (site AGGCTCCCTCA)”, 0.0118; that for “AGGGTCCCATGGACCGGTTTTCCCGGTAATCCGTATTTGTG (site AGGGTCCCTCA)”, 0.304. Regarding “AGGGTCCCATGGACCGGTTTTCCCGGTAATCCGTATTTGTG (site AGGTTCCCTCA)”, the “recombinant UMI read abundance (log10)” value was determined as 0.0182. For the sequence “AGGGTGCCATGGACCGGTTTTCCCGGTAATCCGTATTTGGG (site AGGGTGCCTCC)”, the “recombinant UMI read abundance (log10)” value was found to be 0.0268.

Turning to “AGGGTTCCATGGACCGGTTTTCCCGGTAATCCGTATTTGGT (site AGGGTTCCTAC)”, the “recombinant UMI read abundance (log10)” value was determined as 0.793. The result for “AGGGTTTCATGGACCGGTTTTCCCGGTAATCCGTATTTGAA (site AGGGTTTCTTT)” reads 2.46.

In the case of “AGGTACTCATGGACCGGTTTTCCCGGTAATCCGTATTTGAC (site AGGTACTCTGT)”, the “recombinant UMI read abundance (log10)” value stood at 3.57. The result for “AGGTAGACATGGACCGGTTTTCCCGGTAATCCGTATTTGAA (site AGGAAGACTTG)” reads 0; that for “AGGTAGACATGGACCGGTTTTCCCGGTAATCCGTATTTGAA (site AGGTAGACTTT)”, 1.89; that for “AGGTCAGCATGGACCGGTTTTCCCGGTAATCCGTATTTGGG (site AGATCAGCTCC)”, 0.0289.

Take “AGGTCAGCATGGACCGGTTTTCCCGGTAATCCGTATTTGGG (site AGCTCAGCTCC)”: the “recombinant UMI read abundance (log10)” value came to 0.0149.

For “AGGTCAGCATGGACCGGTTTTCCCGGTAATCCGTATTTGGG (site AGGTCAGCTCC)”, the “recombinant UMI read abundance (log10)” value was 0.00675. The result for “AGGTCAGCATGGACCGGTTTTCCCGGTAATCCGTATTTGGG (site AGTTCAGCTCC)” reads 0.0281.

Take “AGGTCATCATGGACCGGTTTTCCCGGTAATCCGTATTTGCT (site AGGTCATCTAG)”: the “recombinant UMI read abundance (log10)” value amounted to 1.48. Turning to “AGGTCATCATGGACCGGTTTTCCCGGTAATCCGTATTTGCT (site CGATCATCTAG)”, the “recombinant UMI read abundance (log10)” value is 0.

For the sequence “AGGTCGGCATGGACCGGTTTTCCCGGTAATCCGTATTTGGC (site AGGTCGGCTGC)”, the “recombinant UMI read abundance (log10)” value was found to be 2.13. The result for “AGGTTCACATGGACCGGTTTTCCCGGTAATCCGTATTTGTG (site AGGTTCACTCA)” reads 0.0184; that for “AGGTTCACATGGACCGGTTTTCCCGGTAATCCGTATTTGTG (site AGGTTCCCTCA)”, 0.

Turning to “AGGTTCACATGGACCGGTTTTCCCGGTAATCCGTATTTGTG (site AGGTTCGCTCA)”, the “recombinant UMI read abundance (log10)” value was determined as 0.00639.

As for “AGGTTCACATGGACCGGTTTTCCCGGTAATCCGTATTTGTG (site AGGTTCTCTCA)”, the “recombinant UMI read abundance (log10)” value came to 0.00699. The result for “AGGTTCCCATGGACCGGTTTTCCCGGTAATCCGTATTTGCG (site AGGTTCCCTCA)” reads 0.0159; that for “AGGTTCCCATGGACCGGTTTTCCCGGTAATCCGTATTTGCG (site AGGTTCCCTCC)”, 0.0204. Next, “AGGTTCCCATGGACCGGTTTTCCCGGTAATCCGTATTTGCG (site AGGTTCCCTCG)”: 0.236; “AGGTTCCCATGGACCGGTTTTCCCGGTAATCCGTATTTGCG (site AGGTTCCCTCT)”: 0.00665. Next, “AGGTTCCCATGGACCGGTTTTCCCGGTAATCCGTATTTGGT (site AGGTTCCCTAC)”: 0.474; “AGGTTCTCATGGACCGGTTTTCCCGGTAATCCGTATTTGTG (site AGGTTCACTCA)”: 0.205; “AGGTTCTCATGGACCGGTTTTCCCGGTAATCCGTATTTGTG (site AGGTTCCCTCA)”: 0.22. Take “AGGTTCTCATGGACCGGTTTTCCCGGTAATCCGTATTTGTG (site AGGTTCGCTCA)”: the “recombinant UMI read abundance (log10)” value worked out at 0.0171. The result for “AGGTTCTCATGGACCGGTTTTCCCGGTAATCCGTATTTGTG (site AGGTTCTCTCA)” reads 2.32; that for “AGGTTTCCATGGACCGGTTTTCCCGGTAATCCGTATTTGTG (site AGGTTACCTCA)”, 0.0337. Turning to “AGGTTTCCATGGACCGGTTTTCCCGGTAATCCGTATTTGTG (site AGGTTCCCTCA)”, the “recombinant UMI read abundance (log10)” value worked out at 0.192. Take “AGGTTTCCATGGACCGGTTTTCCCGGTAATCCGTATTTGTG (site AGGTTGCCTCA)”: the “recombinant UMI read abundance (log10)” value was determined as 0.00446. Next, “AGGTTTCCATGGACCGGTTTTCCCGGTAATCCGTATTTGTG (site AGGTTTCCTCA)”: 0.271. The result for “AGTAACGCATGGACCGGTTTTCCCGGTAATCCGTATTTGGG (site AGTAACGCTCC)” reads 0.161. With “AGTAAGACATGGACCGGTTTTCCCGGTAATCCGTATTTGAG (site AGTAAGACTCT)”, the “recombinant UMI read abundance (log10)” value is 1.72. Next, “AGTAAGACATGGACCGGTTTTCCCGGTAATCCGTATTTGCA (site AGAAAGACTTG)”: 1.66; “AGTAAGACATGGACCGGTTTTCCCGGTAATCCGTATTTGCA (site AGCAAGACTTG)”: 2.39; “AGTAAGACATGGACCGGTTTTCCCGGTAATCCGTATTTGCA (site AGGAAGACTTG)”: 1.31.

In the case of “AGTAAGACATGGACCGGTTTTCCCGGTAATCCGTATTTGCA (site AGTAAGACTTG)”, the “recombinant UMI read abundance (log10)” value is 2.57. The result for “AGTAAGACATGGACCGGTTTTCCCGGTAATCCGTATTTGCC (site AGGAAGACTTG)” reads 0.00684; that for “AGTAAGACATGGACCGGTTTTCCCGGTAATCCGTATTTGCC (site AGTAAGACTGG)”, 2.13.

Take “AGTAATCCATGGACCGGTTTTCCCGGTAATCCGTATTTGGT (site AGTAATCCTAC)”: the “recombinant UMI read abundance (log10)” value was found to be 0.00506. Next, “AGTACAGCATGGACCGGTTTTCCCGGTAATCCGTATTTGCC (site AGTACAGCTGG)”: 2.27; “AGTACTACATGGACCGGTTTTCCCGGTAATCCGTATTTGAC (site AGAACTACTGT)”: 0.731.

As for “AGTACTACATGGACCGGTTTTCCCGGTAATCCGTATTTGAC (site AGCACTACTGT)”, the “recombinant UMI read abundance (log10)” value amounted to 0. The result for “AGTACTACATGGACCGGTTTTCCCGGTAATCCGTATTTGAC (site AGGACTACTGT)” reads 1.71; that for “AGTACTACATGGACCGGTTTTCCCGGTAATCCGTATTTGAC (site AGTACTACTGT)”, 1.28.

With “AGTACTGCATGGACCGGTTTTCCCGGTAATCCGTATTTGGT (site AGTACTGCTAC)”, the “recombinant UMI read abundance (log10)” value came to 0.745. Next, “AGTAGAACATGGACCGGTTTTCCCGGTAATCCGTATTTGAG (site AATAGAACTCT)”: 0.806; “AGTAGAACATGGACCGGTTTTCCCGGTAATCCGTATTTGAG (site ACTAGAACTCT)”: 0.901; “AGTAGAACATGGACCGGTTTTCCCGGTAATCCGTATTTGAG (site AGTAGAACTCT)”: 1.24. Regarding “AGTAGAACATGGACCGGTTTTCCCGGTAATCCGTATTTGAG (site ATTAGAACTCT)”, the “recombinant UMI read abundance (log10)” value is 0.418.
